PMC3904085 (Frontiers in Neuroscience, 2014)
“Also recorded” adds a separate entry of the source.

Experiments:
C57Bl/6 mice = assay: DRL 36-s schedule of reinforcement in wild-type mice; format: in vivo, mouse; settings: for Lever Presses Mean / Reinforcers Mean: WT mice DRL-36-s, raw data
Text: (§1) The levers in these chambers were mounted on one wall with an adjacent food magazine next to the lever in the middle of the wall. A reinforced response caused a clicker apparatus to activate and the pellet feeder to deposit one 45-mg sucrose pellet (BioServ, Frenchtown, NJ) into the food magazine. The house light, which was mounted on the ceiling, was turned on when the session began, remained on throughout the entire session, and was turned off at the end of the session. Each experimental chamber was enclosed in a melamine sound-attenuating cubicle and equipped with a white noise generator to provide masking noise.
(§2) Each mouse was initially trained under a variable time 60-s operant schedule for 5 days, followed by fixed ratio-1 ratio schedule for 5 days. After the mice had acquired lever-pressing behavior, they were trained during daily DRL 6-s sessions for ~1 week, then mice progressed through weekly ascending DRL requirements (12, 18, 24, 30 s) before moving to DRL 36-s sessions. […] Experimental sessions lasted for 45 min and were conducted 5 days/week during light hours.
(§3) Drugs were administered to the animals once or twice weekly with at least 1 week between subsequent drugs to minimize possible carryover effects. Drug treatments were administered on Tuesdays and Fridays. No treatments were administered on other test days. Wednesdays were control days. “Control” behavior was calculated as the pooled mean lever presses or reinforcers received during Wednesday sessions across all Wednesdays for the duration of each study. Performance was normalized to percent of control by dividing total responses (or reinforcers) for each drug or vehicle treatment by the mean number of responses (reinforcers) in the respective pooled control condition, multiplied by 100.
(§4) The data analyses were conducted on the raw response and reinforcement data. All behavioral data are expressed as the mean ± s.e.m. normalized to the control condition.

Sprague–Dawley rats = assay: DRL 72-s schedule of reinforcement in rats; format: in vivo, rat; settings: for Lever Presses Mean / Reinforcers Mean: HSD rats DRL-72-s, raw data
Text: Each chamber was enclosed in a melamine sound-attenuating cubicle. A white noise generator provided masking noise. The interior of each chamber consisted of three levers mounted on one wall with a house light mounted on the opposite wall. The house light was turned on at initiation of each test session and was turned off at the termination of each session. A water access port was situated next to the lever in the middle of the wall, wherein a reinforced response caused a clicker apparatus to sound paired with a dipper (0.02-ml cup) to be lifted from a water trough to an opening in the floor of the access port for 4 s.
Rats were initially trained under an alternative fixed ratio 1 water reinforcement schedule with a fixed 1-min time schedule for automatic reinforcement. Thus, each response was reinforced, with water also provided every minute in the absence of a response. […] Following acquisition of lever-pressing behavior, rats were trained daily on DRL 18-s sessions for ~2 weeks, following which they were advanced to DRL 72-s sessions. Responding on these sessions became stable after ~8 weeks. Experimental test sessions lasted for 1 h and were conducted 5 days/week during light hours.
as §3, §4

[1] = test system: mice lacking OX1 receptors; assay: DRL 36-s schedule of reinforcement in OX1 KO mice; format: in vivo, mouse; settings: for Lever Presses Mean / Reinforcers Mean: OX1 KO mice DRL-36-s, raw data; for Lever presses emitted / Reinforcers received: DRL-36-s
Text: (§5) Rats were acclimated to housing conditions for 4 days, followed by sham dosing once daily for 3 days, prior to the experiment. For DRL experiments, male Sprague–Dawley rats weighing between 300 and 350 g at the beginning of the behavioral experiments (Holtzman, Madison, WI) were housed in pairs. For mouse DRL studies, male C57Bl/6 mice (Taconic Farms, Hudson, NY) or mice lacking either OX1 or OX2 receptors, around 8 weeks of age, were obtained from private breeding colonies at Taconic Farms (Hudson, NY). OX1 and OX2 receptor knockout mice were generated using in vitro fertilization of embryos in C57Bl/6 female mice with sperm harvested from male mice obtained from the University of Texas Southwestern Medical Center (Dallas, TX), and backcrossed for at least 10 generations. Mice and rats were housed in separate colony rooms, which were maintained at 22°C and 60% relative humidity. For rat DRL experiments, water was available for a 20-min period following the daily behavioral session. Based on recommendations from the animal care and use committee, the mouse DRL assay was developed using food deprivation rather than water deprivation. […] All experiments were conducted during the light cycle and in compliance with the Guide for the Care and Use of Laboratory Animals under protocols approved by a local animal care and use committee.
as §1, §2, §3, §4

[2] = test system: mice lacking OX2 receptors; assay: DRL 36-s schedule of reinforcement in OX2 KO mice; format: in vivo, mouse; settings: for Lever Presses Mean / Reinforcers Mean: OX2 KO mice DRL-36-s, raw data; for Lever presses emitted / Reinforcers received: mice lacking OX2 receptors, DRL-36-s
Text: as §5, §1, §2, §3, §4

[3] = test system: c-Fos protein in rat medial prefrontal cortex; assay: Restraint-stress-induced c-Fos activation (ELISA); settings: 3 mg/kg IP 30 min before 20 min restraint, 3 mg/kg
Protocol: Thirty min later, rats were restrained in a rigid plastic flat-bottom restraint tube (Braintree Scientific, Inc.; Braintree, MA, USA) for 20 min. After the 20 min stress period, rats were moved to a new cage and housed individually. Rats were sacrificed 2 h after stress onset. […] Immediately after sacrifice, brains were removed, the medial prefrontal cortex (mPFC), a brain area implicated in the pathophysiology of depression, was dissected from both hemispheres and frozen in 1.5 ml centrifuge tubes in dry ice, and stored at −80°C for later analysis.
Frozen mPFC tissues were removed from the −80°C freezer and placed on ice. Tissue was homogenized with a dounce homogenizer. The nuclear extract was prepared from the homogenized samples as per manufacturer's instructions using a CHEMICON ®Nuclear Extraction Kit (Millipore; Billerica, MA, USA). Protein concentrations were determined in the nuclear extracts using the Pierce BCA Protein Assay kit (Pierce Biotechnology, Inc., Rockford, IL, USA). Nuclear fractions were then assayed for Fos protein levels using the Pierce c-Fos Transcription Factor Kit (Pierce Biotechnology, Inc., Rockford, IL, USA), according to the manufacturer's instructions. […] Data were analyzed and plotted using GraphPad Prism (GraphPad Software, Inc.; La Jolla, CA, USA).

[4] = mice lacking OX1 receptors, 20 mg/kg
[5] = 10 mg/kg, positive control in the SB334867 experiment
[6] = rats DRL-72-s, 10 mg/kg, normalized to control days
[7] = rats DRL-72-s, 10 mg/kg, positive control in the SB334867 experiment
[8] = mice lacking OX1 receptors, 15 mg/kg

Which results are given for `Cc1nc2ccc(NC(=O)Nc3ccnc4cccnc34)cc2o1` [SB334867]?
Effect on lever presses emitted or reinforcers received, in words (C57Bl/6 mice; C57Bl/6 mice DRL-36-s, up to 40 mg/kg): did not significantly affect; Lever Presses Mean (C57Bl/6 mice; dose 3 mg/kg): 162.86; Reinforcers Mean (C57Bl/6 mice; dose 3 mg/kg): 17.14; Lever Presses Mean (C57Bl/6 mice; dose 10 mg/kg): 157.57; Reinforcers Mean (C57Bl/6 mice; dose 10 mg/kg): 16.14; Lever Presses Mean (C57Bl/6 mice; dose 20 mg/kg): 148.57; Reinforcers Mean (C57Bl/6 mice; dose 20 mg/kg): 18.43; Lever Presses Mean (C57Bl/6 mice; dose 40 mg/kg): 87.67; Reinforcers Mean (C57Bl/6 mice; dose 40 mg/kg): 22.33; Lever Presses Mean (Sprague–Dawley rats; dose 3 mg/kg): 76.57; Reinforcers Mean (Sprague–Dawley rats; dose 3 mg/kg): 11.00; Lever Presses Mean (Sprague–Dawley rats; dose 10 mg/kg): 70.71; Reinforcers Mean (Sprague–Dawley rats; dose 10 mg/kg): 12.43; Lever Presses Mean (Sprague–Dawley rats; dose 30 mg/kg IP): 71.86; Reinforcers Mean (Sprague–Dawley rats; dose 30 mg/kg IP): 11.00; Change in reinforcers received or total lever presses made, in words (Sprague–Dawley rats; rats DRL-72-s, doses up to 30 mg/kg): did not produce a significant change; Lever Presses Mean ([1]; dose 1 mg/kg): 209.75; Reinforcers Mean ([1]; dose 1 mg/kg): 15.00; Lever Presses Mean ([1]; dose 3 mg/kg): 169.00; Reinforcers Mean ([1]; dose 3 mg/kg): 23.88; Lever Presses Mean ([1]; dose 10 mg/kg): 163.63; Reinforcers Mean ([1]; dose 10 mg/kg): 22.88; Lever Presses Mean ([1]; dose 20 mg/kg): 141.88; Reinforcers Mean ([1]; dose 20 mg/kg): 28.75; Lever Presses Mean ([1]; dose 40 mg/kg): 68.13; Reinforcers Mean ([1]; dose 40 mg/kg): 21.38; Lever presses emitted [1, 4]: 75 % of control; Reinforcers received [1, 4]: 166 % of control; Lever presses emitted ([1]; mice lacking OX1 receptors, 40 mg/kg): 35 % of control; Reinforcers received ([1]; mice lacking OX1 receptors, 40 mg/kg, not significant): 123%; Lever Presses Mean ([2]; dose 1 mg/kg): 175.50; Reinforcers Mean ([2]; dose 1 mg/kg): 19.50; Lever Presses Mean ([2]; dose 3 mg/kg): 155.75; Reinforcers Mean ([2]; dose 3 mg/kg): 21.50; Lever Presses Mean ([2]; dose 10 mg/kg): 167.75; Reinforcers Mean ([2]; dose 10 mg/kg): 22.75; Lever Presses Mean ([2]; dose 20 mg/kg): 149.50; Reinforcers Mean ([2]; dose 20 mg/kg): 26.25; Lever Presses Mean ([2]; dose 40 mg/kg): 27.38; Reinforcers Mean ([2]; dose 40 mg/kg): 17.50; Lever presses emitted ([2]; 40 mg/kg): less than 20 % of control; Reinforcers received ([2]; 40 mg/kg): 75 % of control

With `Cc1nnc2n1-c1ccc(Cl)cc1C(c1ccccc1)=NC2` [alprazolam] as the molecule, how does the “Effect on restraint stress-induced increase in c-fos expression in prefrontal cortex” value [3] read?
The value was “attenuated; also recorded: blocked”.

What does the source list for `CN(C)CCCN1c2ccccc2CCc2ccccc21` [imipramine]?
Lever Presses Mean (Sprague–Dawley rats; 10 mg/kg, positive control in the LSN2424100 experiment): 55.71; Lever Presses Mean (Sprague–Dawley rats; [5]): 49.00; Reinforcers Mean (Sprague–Dawley rats; [5]): 18.57; Lever Presses Mean (Sprague–Dawley rats; dose 1 mg/kg): 77.50; Reinforcers Mean (Sprague–Dawley rats; dose 1 mg/kg): 9.92; Lever Presses Mean (Sprague–Dawley rats; dose 3 mg/kg): 68.42; Reinforcers Mean (Sprague–Dawley rats; dose 3 mg/kg): 15.17; Lever Presses Mean (Sprague–Dawley rats; dose 10 mg/kg): 46.17; Reinforcers Mean (Sprague–Dawley rats; dose 10 mg/kg): 20.33; Reinforcers received (Sprague–Dawley rats; [6]): 210 % of control; Total lever presses emitted (Sprague–Dawley rats; [6]): 51 % of control; Lever presses (Sprague–Dawley rats; [7]): 64 % of control; Reinforcers received (Sprague–Dawley rats; [7]): 160 % of control; Effect on DRL behavior (lever presses, reinforcers), in words (Sprague–Dawley rats; rats DRL-72-s, doses of 1 and 3 mg/kg): no significant effect on behavior; Lever Presses Mean ([1]; dose 3 mg/kg): 177.63; Lever Presses Mean ([1]; dose 10 mg/kg): 174.13; Reinforcers Mean ([1]; dose 10 mg/kg): 24.25; Lever Presses Mean ([1]; dose 15 mg/kg): 128.50; Reinforcers Mean ([1]; dose 15 mg/kg): 31.13; Lever presses emitted [1, 8]: 63 % of control; Reinforcers received [1, 8]: 206 % of control; Effect on lever pressing, in words ([1]; mice lacking OX1 receptors, doses lower than 15 mg/kg): did not affect lever pressing; Lever Presses Mean ([2]; dose 10 mg/kg): 165.25; Reinforcers Mean ([2]; dose 10 mg/kg): 27.88; Lever Presses Mean ([2]; dose 15 mg/kg): 116.88; Reinforcers Mean ([2]; dose 15 mg/kg): 33.00; Lever presses emitted ([2]; 15 mg/kg): 70 % of control; Reinforcers received ([2]; 15 mg/kg): 140 % of control
